We go through 16 compounds from patent US20190125702A1, “Methods and Compositions for the Treatment of Demyelinating Disorders” (Vitality Biopharma, Inc., priority 2016, published 2019).

SMILES strings stand for the structures. “Also recorded” adds a separate entry of the source. Bounds are passed on as bounds.

The subject of assay [1] is E18 rat embryonic cortical co-cultures (MBP fiber length/Olig2 nuclei). Nature of the assay: embryonic cortical cell co-culture myelination assay. To be noted: for EC50: Rattus norvegicus, 192 h, cortical myelination assay, eight days treatment, N >= 2; for myelination in the cortical myelination assay (in words): compound added DIV5, eight days, live axons. Format: cell-based. An excerpt:
Embryonic Cortical Culture Methods: The dissection of E18 rat (Charles River, Wilmington, Mass., USA) cortex is similar to that described previously, [32], [33] with some modifications. Briefly whole cortices from three embryos were collected in a petri dish containing HBSS. After carefully removing the meninges, the tissue was divided into cortical hemispheres, dissected and the non-cortical structures were removed. Cortical tissue was then digested in 7 U/ml papain dissolved in HBSS with 500 U/ml DNase I, and incubated for 30 minutes at 35° C. The enzymatic reaction was terminated with DMEM containing 10% FBS. The tissue was allowed to settle, supernatant was removed and tissue was triturated with a flame-polished glass Pasteur pipette in DMEM/10% FBS, 250 U/ml DNAse I until the tissue was completely dispersed. The dissociated cell suspension was centrifuged at 200×g for 5 minutes and supernatant replaced with plating medium (NB medium with 1× N21 supplement and 2 mM L-glutamine and 1% penicillin-streptomycin). […] Isolated cells were seeded onto 96-well plates pre-coated with poly-D-lysine (10 μg/m1) and laminin (2 ␣/ml) at a density of 20,000 cells/well ([…]). Neurons were allowed to adhere, recover, mature and extend axons for three days. On the fourth day, the plating medium was diluted with an equivolume of myelination medium (MyM), as described in Watkins et al., 2008 [9] with minor modifications (see results). The following day, two-thirds of the medium was replaced with fresh MyM and test compound. The day after establishing the primary culture was defined as day 1 in vitro (DIV1).
Immunofluorescence Staining and Imaging: At the experimental end point, medium was removed leaving 50 μl/well using an ELX405 microplate washer (BioTek, Winooski, Vt., USA). Cells were then fixed for 14 min with paraformaldehyde solution to a final concentration of 4%. Following fixation, plates were washed with 1 ml PBS leaving 50 μl/well using the microplate washer. Cells were then blocked in blocking buffer (10% normal goat serum, 0.1% Triton X-100, antibody buffer (150 mM NaCl, 50 mM Tris Base, 1% BSA, 100 mM L-lysine, 0.004% sodium azide, pH 7.4), and stained with mouse anti-rat MBP antibody and anti-rabbit Olig2 diluted in blocking buffer overnight at 4° C. The cells were washed and incubated with secondary antibodies, and DAPI, 0.3 μM for 1 h at room temperature. After a final wash, 100 μl of PBS was added to each well and plates imaged. Images were captured with a Nikon Eclipse TE-2000-U microscope, Zyla cMOS megapixel camera (ANDOR Technology, Belfast, UK), fitted with an automated stage controlled by NIS Elements AR software 4.0 (Melville, N.Y., USA). An air 10× lens was used to capture four images per well with 16 bit resolution, 2560×2160 pixels. Images for each assay run were captured using identical camera settings. Images were exported as TIFF files for analysis and quantification.
Image Quantification: TIFF files were analyzed using a custom algorithm created with IN Cell Investigator Developer Toolbox (GE Health Sciences, Piscataway, N.J., USA). For each well, four images were analyzed and the data from the duplicate well combined and averaged (total of eight images per test condition). The extent of OL differentiation was defined by the total threshold-selected area of MBP staining×MBP fluorescence intensity in this area divided by the total number of OLs (identified by Olig2 nuclear staining). We referred to this as the “MBP score” or “OL differentiation”. Earlier publications have characterized in vitro myelination as contiguous segments of MBP staining co-localizing with axons, representing the contact and ensheathment of axons with the myelin membrane generated by OLs.

Assay [2] deals with purified OPCs from P7 Sprague-Dawley rat pups. Nature of the assay: acute oligodendrocyte differentiation assay with acutely purified OPCs. The class given is cell-based. The conditions noted are these: 4 days culture, MBP staining intensity. How it is done: Acute Oligodendrocyte Differentiation Assay: OPCs from P7 Sprague-Dawley rat pups were purified by immunopanning and cultured as described. OPCs were plated at 5000 cells/well into pDL-Laminin coated 96-well TC plate wells and centrifuged at 200×g to facilitate cell attachment, survival, and assure even distribution of OPCs. Plated OPCs were pre-incubated for 1-2 hours at 37° C. in 10% CO2 incubator, followed by addition of test compounds in quadruplicate. Controls were added in eight replicate wells, negative control=0.1% DMSO final concentration; positive control=40 ng/ml T3. The day of OPC plating was considered DIV0. On DIV4, cells were fixed, immunostained, and imaged as described below. Minor modifications include blocking cells with 10% normal goat serum (NGS)/0.4% Triton X-100 and staining overnight at 4° C. with rat anti-MBP antibodies diluted in 10% NGS/0.08% Triton X-100. OL differentiation was quantified by IN Cell Developer Toolbox image analysis software which calculated the MBP staining intensity of two images per well. The extent of OL differentiation was defined by the total threshold-selected area of MBP staining×MBP fluorescence intensity in this area divided by the total number of OLs (identified by DAPI nuclear staining).

The test system of the next assay is purified OPCs. To be noted: lead compounds of published studies [2],[3],[4]; cited from earlier work.

Take `N=C(N)NC(=O)c1nc(Cl)c(N)nc1N` [Amiloride]: the EC50 in assay [1] worked out at 8.9 µM. This counts as single-digit micromolar.

In the case of `C[C@H]1[C@H](OC(=O)CCC(=O)O)O[C@@H]2O[C@@]3(C)CC[C@H]4[C@H](C)CC[C@@H]1[C@@]24OO3` [Artesunate], the EC50 in assay [1] is 3.3 µM.

In assay [1], `COc1ccc(CC2c3cc(OC)c(OC)cc3CC[N+]2(C)CCC(=O)OCCCCCOC(=O)CC[N+]2(C)CCc3cc(OC)c(OC)cc3C2Cc2ccc(OC)c(OC)c2)cc1OC` (stereo not shown) [Atracurium Besylate] displayed an EC50 of 5.3 µM. This EC50 is about 1.6-fold higher than that of the compound before.

In the case of `NC(=O)[C@@H](CCC(F)(F)F)N(Cc1ccc(-c2ncon2)cc1F)S(=O)(=O)c1ccc(Cl)cc1` [BMS 708, 163], it took 0.067 µM to reach a half-maximal effect in assay [1] (EC50).

As to `C[C@H](NC(=O)Cc1cc(F)cc(F)c1)C(=O)N[C@H](C(=O)OC(C)(C)C)c1ccccc1` [DAPT, N-[N-(3,5-Difluorophenacetyl)-L-alanyl]-S-phenylglycine t-butyl ester], in assay [1], the “reduction of the number of Olig2+ cells” value is recorded as roughly 50% and the “myelination in the cortical myelination assay (in words)” value (from here on “myelination … (in words)”) is recorded as “significant dose-dependent increases in myelination”. The DAPT/DMSO myelination ratio in assay [1] (5 days NB/N21 and 8 days MyM plus test compound) stood at 7.7. In assay [1] (DAPT treated cultures), the “fiber/MBP score, typically observed” value is listed as greater than 1.5. In assay [1] (cultures without exogenously added OPCs), the “promotion of myelination, fold over DMSO” value stood at 1.76 fold over DMSO. Further, the “average DAPT/DMSO Fiber/MBP ratio” value in assay [1] (entire NCC library screen, plate controls) was found to be 1.61.

Consider `C[C@H]1O[C@@H](O[C@H]2[C@@H](O)C[C@H](O[C@H]3[C@@H](O)C[C@H](O[C@H]4CC[C@@]5(C)[C@H](CC[C@@H]6[C@@H]5C[C@@H](O)[C@]5(C)[C@@H](C7=CC(=O)OC7)CC[C@]65O)C4)O[C@@H]3C)O[C@@H]2C)C[C@H](O)[C@@H]1O` [Digoxin], for which the EC50 in assay [1] was 11.3 µM.

`CC(=O)O[C@@]12CO[C@@H]1C[C@H](O)[C@@]1(C)C(=O)[C@H](O)C3=C(C)[C@@H](OC(=O)[C@H](O)[C@@H](NC(=O)OC(C)(C)C)c4ccccc4)C[C@@](O)([C@@H](OC(=O)c4ccccc4)[C@H]21)C3(C)C` [Docetaxel] gave an EC50 in assay [1] of 0.1 µM.

In turn, `O=S(=O)(NC1CCC(c2cc(F)ccc2F)(S(=O)(=O)c2ccc(Cl)cc2)CC1)C(F)(F)F` (stereo not shown) [MRK 560] had a concentration for a half-maximal effect (EC50) in assay [1] of 0.082 µM.

For `CN(Cc1cnc2nc(N)nc(N)c2n1)c1ccc(C(=O)N[C@@H](CCC(=O)O)C(=O)O)cc1` [Methotrexate], the “Olig2+ nuclei expression (in words)” value in assay [1] (NCC library screen) was “very low overall Olig2+ nuclei expression”. A half-maximal response in assay [1] (EC50) required 0.1 µM.

In the case of `NC(=O)N1c2ccccc2CC(=O)c2ccccc21` [Oxcarbazepine], the midpoint of the response in assay [1], the EC50, lay at 14.7 µM.

The compound `O=c1[nH]c(=O)n(C2CCCO2)cc1F` (stereo not shown) [Tegafur] returned an EC50 in assay [1] of 2.7 µM. Compared with the last compound, the EC50 is about 5.4-fold lower.

`COc1cc(CNC(=O)CCCC/C=C\C(C)C)ccc1O` [Zu-capsaicin] registered an EC50 in assay [1] of 4.7 µM.

On to `CN1[C@@H]2CC[C@H]1C[C@@H](OC(c1ccccc1)c1ccccc1)C2` [benztropine], for which, in assay [2], the “OL differentiation of purified OPCs (in words)” value is given as “facilitate OL differentiation; also recorded: significant OL differentiation”. For the same compound, the “OL differentiation in cultures of purified OPCs (published screens)” value (shortened to “OL differentiation in cultures”) in the assay on purified OPCs is on record as “facilitate OL differentiation”. Besides, in assay [1], the “myelination … (in words)” value is “little to no activity; also recorded: no effect on myelination; also recorded: did not promote myelination”.

As to `CN1CCC[C@@H]1CCO[C@](C)(c1ccccc1)c1ccc(Cl)cc1` [clemastine], the “OL differentiation of purified OPCs (in words)” value in assay [2] is “facilitate OL differentiation; also recorded: significant OL differentiation”. For the same compound, in the assay with purified OPCs, the “OL differentiation in cultures” value is recorded as “facilitate OL differentiation”. Besides, in assay [1], the “myelination … (in words)” value is “little to no activity; also recorded: no effect on myelination; also recorded: did not promote myelination”.

As for `C[C@H]1C[C@H]2[C@@H]3CCC4=CC(=O)C=C[C@]4(C)[C@@]3(F)[C@@H](O)C[C@]2(C)[C@@]1(O)C(=O)CCl` [clobetasol], the “OL differentiation in cultures” value in the assay on purified OPCs is listed as “facilitate OL differentiation”. In assay [1], the “myelination … (in words)” value is “no effect on myelination”.

`Clc1ccc(COC(Cn2ccnc2)c2ccc(Cl)cc2Cl)c(Cl)c1` (stereo not shown) [miconazole]: in the assay with purified OPCs, the “OL differentiation in cultures” value is reported as “facilitate OL differentiation”. Also, the “myelination … (in words)” value in assay [1] is recorded as “no effect on myelination”.

Broadly, the EC50 is the concentration at which the effect is half-maximal.
